Measurements from a melting point compilation (Tetko et al.; mined from patent text by program, amines drawn as free bases though some values may be those of a salt).

Question: Which melting point does the source give for `CC(C)SC(=O)N1CCN(c2ccc3ncc(Br)n3n2)CC1` here?
Answer: 186 to 187 °C

Question: For `CC(C)(C)OC(=O)NC(Cc1ccc(C=O)cc1)C(=O)N1CCCC1` (stereo unspecified), which melting point is on record?
Answer: 134 °C

Question: Which melting point does the source give for `CCCCCC1CCC(c2ccc(C(=O)O)cc2)CC1` (stereo unspecified) here?
Answer: 30 °C

Question: For `COc1ccccc1CNc1cccnc1-c1ccccc1`, which melting point is on record?
Answer: 122 to 125 °C

Question: Which melting point does the source give for `Cc1nc(-c2ccc(C(=O)c3ccccc3)cc2)sc1C(=O)O` here?
Answer: 217 to 218 °C

Question: With `C=CCN1c2ccccc2-c2noc3c2C1CCC3` (stereo unspecified) as the compound, how does the melting point read?
Answer: 114 to 117 °C

Question: Which melting point does the source give for `O=C(NO)c1ccc(CNC(=O)c2[nH]c(-c3ccccc3)cc2-c2ccc(F)cc2)o1` here?
Answer: 152 to 153 °C

Question: For `COc1cc2c(cc1OCc1ccccc1)CCN(C(=O)c1ccccc1OC)C2=O`, which melting point is on record?
Answer: 163 to 164 °C

Question: With `CCOC(=O)CC(=Cn1cc[nH]c1=O)c1ccc(OC)c(OC2CCCC2)c1` as the compound, how does the melting point read?
Answer: 164 °C

Question: For `O=C1C=C(c2ccc(C(=O)N3Cc4cccn4Cc4ccccc43)cc2)CCC1`, which melting point is on record?
Answer: 205 to 207 °C

Question: For `CC(=O)OCc1c(Br)cccc1Br`, which melting point is on record?
Answer: 62 to 65 °C

Question: With `CC(C)Oc1cc(COc2cc(CCC(=O)O)n(-c3ccccc3)n2)cc(COc2ccc(Cl)cc2Cl)c1` as the compound, how does the melting point read?
Answer: 108 to 110 °C

Question: Which melting point does the source give for `CCCCCCCCCCCCc1ccc(C(=O)c2ccccc2C(=O)O)cc1` here?
Answer: 85 °C

Question: For `N#Cc1c(Cl)c(C(F)(F)F)n(CCl)c1-c1ccc(Cl)cc1`, which melting point is on record?
Answer: 107 to 108 °C

Question: Which melting point does the source give for `COC(=O)c1ccc(NC(=O)c2cc(C(C)C)c(C(C)C)s2)cc1` here?
Answer: 180 to 182 °C

Question: With `CCCCc1nc2ccccn2c(=O)c1-c1ccc2[nH]ccc2c1` as the compound, how does the melting point read?
Answer: 132 to 135 °C

Question: With `COc1ccc(N2CCN(c3ccc(N=C=S)cc3)CC2)cc1` as the compound, how does the melting point read?
Answer: 181 °C

Question: Which melting point does the source give for `CCOC(=O)C(=CN[C@@H](C)CO)C(=O)c1c(F)c(F)c(Br)c(F)c1F` here?
Answer: 127 to 134 °C

Question: For `COc1ccccc1C(=O)Nc1ccc(Cl)cc1`, which melting point is on record?
Answer: 56.1 to 58.7 °C

Question: For `CC(C)c1c(I)sc2ncc(C#N)c(Cl)c12`, which melting point is on record?
Answer: 177 to 179 °C

Question: For `O[C@@H]1CNC[C@H]1Oc1cccc2ccccc12` (relative stereo), which melting point is on record?
Answer: 112 to 115 °C

Question: With `O=C(O)[C@@H](CSCc1ccccc1)N1C(=O)C=CC1=O` as the compound, how does the melting point read?
Answer: 86 to 87 °C

Question: For `COC(=O)NNCc1ccc(Cl)cc1Cl`, which melting point is on record?
Answer: 82 to 83 °C

Question: For `COc1ccc(Sc2ccccc2CC#N)cc1`, which melting point is on record?
Answer: 65 to 67 °C

Question: Which melting point does the source give for `Oc1cccc(CN2CCCCC2c2nc(-c3ccccc3)c(-c3ccccc3)o2)c1` (stereo unspecified) here?
Answer: 205 to 208 °C

Question: With `COc1cc(OC)nc(C2OC(=O)c3ncccc32)n1` (stereo unspecified) as the compound, how does the melting point read?
Answer: 167 to 168 °C

Question: For `O=C(NC(=O)c1c(F)cccc1Cl)Nc1ccc(S(=O)C(F)(F)C(F)F)cc1F` (stereo unspecified), which melting point is on record?
Answer: 213 to 216 °C

Question: Which melting point does the source give for `C=CCN1CCCC1CNC(=O)c1cc(S(N)(=O)=O)cc2c1OCCO2` (stereo unspecified) here?
Answer: 143 to 144 °C

Question: Which melting point does the source give for `O=C(NCc1ccc(I)cc1Cl)C1CC1` here?
Answer: 158 to 160 °C

Question: Which melting point does the source give for `O=C1OC(=O)c2cc(N=C=S)ccc21` here?
Answer: 106 to 108 °C

Question: With `CCOC=Nc1noc(-c2cc(C(C)(C)C)c(O)c(C(C)(C)C)c2)n1` as the compound, how does the melting point read?
Answer: 159 to 161 °C

Question: For `CCCCCCCCC(C)(C)c1cc(=O)c2cc(O)ccc2o1`, which melting point is on record?
Answer: 257 °C

Question: With `O=c1[nH]c(Cc2ccc(OCCc3coc(-c4ccccc4)n3)cc2)no1` as the compound, how does the melting point read?
Answer: 154 to 158 °C

Question: Which melting point does the source give for `CN1CCN(C(=O)c2cnc(S)n2Cc2cc(F)cc(F)c2)CC1` here?
Answer: 243 to 244 °C

Question: Which melting point does the source give for `Cc1cc(OCc2ccc(-c3ccccc3C(=O)O)cc2)c2ncccc2n1` here?
Answer: 213 to 214 °C

Question: With `CCOP(=O)(OCC)Oc1cc(CC)ccc1C1CCN(CCCCNC(=O)c2ccc(NC(=O)c3ccc(Cl)cc3)cc2)CC1` as the compound, how does the melting point read?
Answer: 158 to 160 °C

Question: Which melting point does the source give for `Cc1cc(N(C)C(N)=O)no1` here?
Answer: 146 to 147 °C

Question: For `CCOC(=O)N[C@@H](C(=O)O)c1ccccc1`, which melting point is on record?
Answer: 143 to 150 °C

Question: With `COCCCNCc1noc([C@H](CCCC2CCCCC2)CC(=O)NO)n1` as the compound, how does the melting point read?
Answer: 60 °C

Question: For `CCOC(=O)c1cnc2cc(F)c(F)cc2c1Cl`, which melting point is on record?
Answer: 111 °C

Question: For `COc1ccc(Cn2ncc3c4c(cnc32)C(=O)NC4=O)cc1`, which melting point is on record?
Answer: 196 to 197 °C

Question: For `O=C(Nc1ccc(-n2nc(C(F)(F)F)cc2C(F)(F)F)cc1)c1ccno1`, which melting point is on record?
Answer: 202 to 204 °C

Question: With `COc1ccc2c(c1)c1c(n2C)CCCC1=O` as the compound, how does the melting point read?
Answer: 150 to 151 °C

Question: Which melting point does the source give for `Cn1cc(C(=O)NCc2ccc(Cl)cc2)c(=O)c2cc(CN3CCOCC3)cc(C#CCN3CCC(O)CC3)c21` here?
Answer: 180 to 183 °C

Question: For `CC(C)OC(=O)C(C(=O)Nc1nccs1)=C1SCS1`, which melting point is on record?
Answer: 174 to 175 °C

Question: Which melting point does the source give for `CC(C)(C)OC(=O)NCCCn1c(CCCOc2ccccc2)nc2c(N)nc3ccccc3c21` here?
Answer: 151 to 153 °C

Question: Which melting point does the source give for `Cc1ccc(C2=NCCN2C(=O)Nc2ccccc2)cc1C` here?
Answer: 139 to 142 °C

Question: Which melting point does the source give for `O=C(Cc1ccccc1)Nc1ccc2c(c1)C(=O)c1cc(NC(=O)Cc3ccccc3)ccc1C2=O` here?
Answer: 224 °C

Question: With `N#CCc1c(-c2ccccc2)sc2ccc(Cl)cc12` as the compound, how does the melting point read?
Answer: 158 to 160 °C

Question: Which melting point does the source give for `Cc1oc(-c2ccccc2)nc1COc1ccc(CON=C(CCCC(=O)O)c2ccccc2)cc1` here?
Answer: 129 to 130 °C

Question: For `CCNc1c(OC)cc(C(=O)OC)cc1OC`, which melting point is on record?
Answer: 50 to 51 °C
